In US20090172831A1, “Methods for the production of plants resistant to HPPD herbicides” (Syngenta Limited, priority 2000, published 2009):

Target: T1, Arabidopsis HPPD (Arabidopsis thaliana, UniProt P93836)
T1 construct: made in house; host or cells: E. coli BL21 (DE3) codon+ RP
T1 sequence (P93836 1-445): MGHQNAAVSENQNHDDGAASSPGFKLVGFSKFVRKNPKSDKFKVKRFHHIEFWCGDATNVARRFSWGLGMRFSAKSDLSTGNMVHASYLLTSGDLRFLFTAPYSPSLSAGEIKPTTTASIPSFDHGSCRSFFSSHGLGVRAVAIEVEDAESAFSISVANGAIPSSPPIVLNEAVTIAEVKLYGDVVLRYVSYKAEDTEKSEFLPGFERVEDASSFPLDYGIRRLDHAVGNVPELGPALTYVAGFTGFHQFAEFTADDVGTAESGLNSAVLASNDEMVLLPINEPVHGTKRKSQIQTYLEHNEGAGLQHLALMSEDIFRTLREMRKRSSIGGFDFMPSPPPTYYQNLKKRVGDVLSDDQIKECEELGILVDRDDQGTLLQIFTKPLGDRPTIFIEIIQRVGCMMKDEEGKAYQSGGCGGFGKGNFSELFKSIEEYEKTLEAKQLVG
Experiment: Rate of binding (kon) by radiolabelled inhibitor and separation of bound from free
Source text: Alternatively estimates of kon values can be determined more directly by mixing HPPD with radio or otherwise labelled herbicide inhibitor and monitoring the progress of the binding reaction, optionally by rapidly isolating the enzyme inhibitor complex and/or by any one of a number of methods (for example fluorimetry, EPR, NMR, radiodetection etc). For example, the reaction with HPPD may be started by addition of radiolabelled herbicide, allowed to proceed for a series of different times and rapidly quenched by addition and mixing with a large excess of unlabelled inhibitor. In this case the extent of binding at different times may, for example, be monitored by using ultrafiltration, binding to filters or gel filtration to separate radiolabel-bound to HPPD from unbound label which fractions can then each be quantitated by scintillation counting. […]
The measurements of koff are based on physical rather than assay-based measurements. Similarly, kon rates can also be measured by a direct physical method, in this case the use of radiolabelled inhibitor and physical separation of protein bound from free inhibitor. […] The rates of binding determined on the basis of measurement of the amount of radiolabelled inhibitor bound after various times of reaction are found to correlate very well with measurements based upon assay-based measurements of the rate of decline of enzyme activity. […]

For `CS(=O)(=O)c1ccc(C(=O)C2C(=O)CCCC2=O)c([N+](=O)[O-])c1` [Structure I, 2-(Nitro-4-methanesulphonylbenzoyl)-cyclohexane-1,3-dione, reference compound], which “rate constant of subsequent much slower binding to the remaining site” value (25% v/v glycerol) is on record?
Its value is ~1000 M⁻¹ s⁻¹.

For `Cc1nc(C(F)(F)F)ccc1C(=O)C1C(=O)C2CCC(C2)C1=O` (centres unmarked) [Structure II], which kon (without 25% v/v glycerol) is on record?
Its kon is 800000 M⁻¹ s⁻¹.
